For this assay, the target named is T1, 20S proteasome (chymotrypsin-like activity) (Oryctolagus cuniculus, UniProt G1T4Q9).
T1 sequence (G1T4Q9 1-263): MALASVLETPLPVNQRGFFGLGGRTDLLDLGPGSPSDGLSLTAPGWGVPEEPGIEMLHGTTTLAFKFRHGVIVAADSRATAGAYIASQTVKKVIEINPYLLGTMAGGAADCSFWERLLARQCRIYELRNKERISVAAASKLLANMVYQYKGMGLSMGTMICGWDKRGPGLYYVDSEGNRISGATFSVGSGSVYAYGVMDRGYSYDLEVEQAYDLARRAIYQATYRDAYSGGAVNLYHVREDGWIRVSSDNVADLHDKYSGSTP
Put plainly: fluorogenic Suc-LLVY-AMC hydrolysis by purified […] proteasome, […] h at […]°C. The format is biochemical.

Among the data in PMC3767936 (Journal of cellular biochemistry, 2010) are IC50 values, retold here.

For the molecule `CCOC(=O)CN(C)C1=[S+][Au-]([Br])([Br])[S]1` [AUL12, [AuBr2(ESDT)]], 1130 nM corresponded to half-maximal inhibition (IC50).

One may read the IC50 as the midpoint of a concentration-inhibition curve. A lower IC50 goes with higher potency.
